BigSolDB 2.1

Conditions: in ethyl acetate

CCCCCOC(=O)Nc1nc(=O)n([C@@H]2O[C@H](C)[C@@H](O)[C@H]2O)cc1F
Conditions	solubility (mole fraction)
278.15 K	0.003
283.15 K	0.0039
288.15 K	0.0052
293.15 K	0.00678
298.15 K	0.00919
303.15 K	0.0112
308.15 K	0.0149
313.15 K	0.019
318.15 K	0.0237
323.15 K	0.0301
